Laboratory results taken from patent US7776597B2, “Method of inducing embryonic stem cells into pancreatic cells” (Beijing Hua Yuan Bo Chuang Technology Limited, priority 2005, dated 2010).

B1: activin A: a member of TGF-β superfamily; disulfide-stabilized protein (protein, UniProt P08476 311-426, looked up)
Inhibin beta A chain: GLECDGKVNICCKKQFFVSFKDIGWNDWIIAPSGYHANYCEGECPSHIAGTSGSSLSFHSTVINHYRMRGHSPFANLKSCCVPTKLRPMSMLYYDDGQNIIKKDIQNMIVEECGCS

Legend:
[1] = tested on: ES-R1 cells; assay: RT-PCR analysis of marker gene expression in differentiated mouse ES cells; type: cell-based, mice; conditions: end of step 2
Procedure: (§1) Step 1, to induce embryonic body (EB) formation, ES cells were dissociated with trypsin and suspended into Petri dishes (Alpha medical instrument) with 10% FBS/DMEM without LIF. After 24 to 48 hours (See FIG. 1B), EBs were collected and re-plated into 10% FBS/DMEM without LIF in 1% Matrigel (BD Biosciences) coated dishes. Two hours later, EBs began to spread onto the dishes and were cultured in 10% FBS/DMEM with 100 ng/ml activin A (Sigma) for 24 hours. Then EBs were switched to 10% FBS/DMEM for 6-8 hours as an interval. After this interval, the differentiated EB cells were cultured in 10% FBS/DMEM with 10^−6 M RA (Sigma) for another 24 hours.
(§2) Step 3, to mature the insulin producing cells, the expanded cells in step 2 were switched to DMEM/F12 (Gibco-BRL) with N2 supplement (1:100, Gibco-BRL), B27 supplement (1:50 Gibco-BRL), 1 μg/ml Laminin (Sigma), 10 ng/ml bFGF (Sigma) and 10 mM nicotinamide (Sigma) and cultured for 3-5 days (Lumelsky N, Blondel O, Laeng P, et al. Differentiation of embryonic stem cells to insulin-secreting structures similar to pancreatic islets. Science 2001; 292:1389-1394.) The morphology of cells was observed under a Nikon phase-contrast microscope (TS-100).
Total RNA was extracted by Catrimox-14 kit (TaKaRa) from the cells in step 2 or step 3 which were induced by both with and without activin A and RA or with only one of them. […]

[2] = tested on: ES-R1 cells; assay: Cell cluster formation on coated dishes during three-step induction; type: cell-based, mice; conditions: dish coating matrix, third step of induction
Procedure: as §1, §2

Molecule | marker genes expressed (RT-PCR) [1] | cell cluster formation [2]
CC1=C(/C=C/C(C)=C/C=C/C(C)=C/C(=O)O)C(C)(C)CCC1 [RA, All-trans retinoic acid] | express only hnf3β | –
laminin | – | no cell clusters formed
B1 | mainly express hnf3β and pdx-1 | –
